The nature of series [1]: Minor metabolites HEP and AEP in human plasma (LC-MS/MS). The series is classed as in vivo. The protocol:
For the first time it was also possible to determine the two minor betahistine metabolites aminoethylpyridine (AEP) and hydroxyethylpyridine (HEP) in human plasma.
HEP and AEP concentrations were determined using liquid chromatographic tandem mass spectrometry (SCIEX API 4000) with a validated method. HEP-d4 and AEP-d4 dihydrochloride served as internal standards. […] The limit of quantitation was 1 ng/mL in case of HEP and 10 pg/mL in case of AEP.

A short description of series [2]: Pharmacokinetic profile in beagle dogs after single oral, intranasal and intravenous betahistine. It is filed as in vivo. The method, then: In this study, the pharmacokinetic profile of betahistine was evaluated after a single dose administration of betahistine in male and female beagle dogs (age 5-7 months; weight of 5-11 kg, within a range of 3 kg for each sex) for three routes of administration: oral, intranasal, and intravenous.
On Day 1 of the study, betahistine (BH) was delivered orally at a dose of 12 mg/kg, 24 mg/kg, or 48 mg/kg. Each treatment group comprised 8 animals (4 males and 4 females). For pharmacokinetic assessment, plasma samples were collected prior to dosing, and then at 5, 10, 20 and 30 min, 1, 2, 3, 6, 24 hours after dosing.
On Day 8 of the study, the animals that received oral BH at a dose of 12 mg/kg were administered the test betahistine composition intranasally at a dose of 40 mg betahistine dihydrochloride; the animals that received oral BH at a dose of 24 mg/kg were administered the test betahistine composition intranasally at a dose of 80 mg betahistine dihydrochloride; and the animals that received oral BH at a dose of 48 mg/kg were administered the test betahistine composition intranasally at a dose of 120 mg betahistine dihydrochloride. The test betahistine composition was delivered intranasally in a single dose via an Aptar nasal spray pump device at a total dose level of 40, 80 and 120 mg of betahistine dihydrochloride. Plasma samples were collected prior to dosing, and then at 5, 10, 20 and 30 min, 1, 2, 3, 6, 24 hours after dosing.
On Day 15 of the study, the animals that received oral BH at a dose of 12 mg/kg and the test betahistine composition intranasally at a dose of 40 mg betahistine dihydrochloride were administered a bolus intravenous injection of betahistine at a dose of 0.44 mg/kg. Plasma samples were collected prior to dosing, and then at 5, 10, 20 and 30 min, 1, 2, 3, 6, 24 hours after dosing.
Betahistine 13CD3 dihydrochloride and 2-pyridylacetic acid-D4 hydrochloride were used as respective internal standards. The calibration range for betahistine was 0.05-250 ng/mL and for 2-PAA 2.00-3000 ng/mL using a plasma sample volume of 0.50 mL.
For determination of betahistine, the method involved liquid-liquid extraction, for 2-PAA, the method involved protein precipitation. Plasma samples were prepared for betahistine by extraction under basic conditions with an organic solvent, then the organic phase was dried, reconstituted and transferred for LC/MS-MS analysis. […] Sample analysis was performed using reversed phase chromatography.

A short description of series [3]: Single-dose and 14-day repeat-dose toxicology/toxicokinetic study of intranasal betahistine in beagle dogs. The series is classed as in vivo. The protocol: Sample analysis was conducted using reversed phase chromatography.
The conditions of series [4]: metabolite of betahistine, background statement; cited from earlier work.
Series [5] can be described thus: clinical. The note with it: human. The method, then:
The safety and pharmacokinetic profile of intranasal betahistine with single and multiple dosing was evaluated in a single-site randomized, placebo-controlled Phase I dose-escalation trial. 72 healthy male and female subjects aged between 18 and 60 years and with a BMI of 18.5 to 30 kg/m^2 were enrolled. In one group, the subjects received single dose intranasal betahistine in four dose cohorts of 10, 20, 40 or 60 mg or multiple dose intranasal betahistine (three times daily for 3 days) in four dose cohorts of 5, 10, 20 or 40 mg (double blind). Subjects received first the single dose and then, following a wash-out period, the multiple doses with the exception of the 5 mg and 60 mg doses which were tested only under one dose regimen. For reference purposes, another group of subjects received single dose oral betahistine in four dose cohorts at 48, […], 192 or 384 mg (single blind).
With each actuation of the nasal spray, 100 μL were delivered (1 actuation at 50 mg/mL for 5 mg and at 200 mg/mL for 20 mg, respectively; 2 actuations at 50 mg/mL for 10 mg and at 200 mg/mL for 40 mg, respectively, into each nostril; 3 actuations at 200 mg/mL for 60 mg with 2 into one nostril and 1 into the other) while the subject was in an upright position.
Serial blood samples were collected at various time points, starting at pre-dose and over a maximum of 72 hours following dosing.
All plasma samples were stored at −95 to −65° C. until all samples had been collected and sent in two separate shipments for analysis.

A short description of series [6]: Single ascending-dose clinical trial of intranasal betahistine in healthy volunteers: safety and plasma pharmacokinetics. As to conditions: human; for tmax: median (range).
Procedure: The safety and pharmacokinetic profile of intranasal betahistine was further evaluated in a double-blind, randomized, placebo-controlled, single ascending-dose clinical trial involving a total of 32 healthy male and female volunteers. The main inclusion criteria were that subjects had to be aged 18-45 years and show a body mass index within the range of 18-30 kg/m^2. Subjects were required to fast for 8 hours prior to study drug administration and for 2 hours post-dose.
The betahistine was supplied as a 50 and 200 mg/mL solution in a HDPE bottle and spray pump pack (Aptar Classic Line) that delivers an accurate 100 μL per actuation. The study drug was delivered into the right nostril of subjects while they were in a supine position. For the 5 and 20 mg doses, one application of 50 and 200 mg/mL, respectively, was needed, whereas for the 10 and 40 mg doses, two applications of 50 and 200 mg/mL were required.
Serial blood samples were collected through 24 hours, following dosing on Day 1, at Day 4 and Day 7 to determine concentrations of betahistine and its main metabolite, 2-PAA in plasma. Plasma samples were assayed for BH content using validated procedures and methods. Blood samples (6 mL) were collected into tubes containing K2EDTA and were centrifuged at approximately 2000 g for 10 minutes at +4° C. and the resultant plasma transferred into 2 clean, labelled 2 mL cryovials. All plasma samples were stored at −70° C. or below until all samples had been collected and sent as a single batch for analysis. Aliquot 1 and 2 were sent as separate shipments. Concentrations were determined using liquid chromatographic tandem mass spectrometry (LC-MS/MS; SCIEX API 5000 for betahistine and SCIEX API 4000 for 2-PAA) with a validated method. Betahistine-^13CD3 dihydrochloride and 2-PAA-D4 hydrochloride served as internal standards. The standard calibration range—using a plasma sample volume of 0.2 and 0.1 mL, respectively—for betahistine was 10 to 800 pg/mL and for 2-PAA it was 2 to 2000 ng/mL. The limit of quantitation was 10 pg/mL for betahistine and 2.0 ng/mL for 2-PAA.
In case of betahistine, the method involved a liquid-liquid extraction; in case of 2-PAA it involved protein precipitation. For betahistine, plasma samples were extracted under basic conditions with an organic solvent; the organic phase was dried and reconstituted in reconstitution solvent. Approximately 0.120 mL of the aqueous layer was transferred into polypropylene vials for LC-MS/MS analysis. For 2-PAA plasma samples were precipitated with a mixture of organic solvents, supernatant was diluted and 0.120 mL was transferred into polypropylene vials for LC-MS/MS analysis. Sample analysis was conducted using reversed phase chromatography.
For each subject who completed the study, plasma concentration-time data of betahistine and 2-PAA were used for the calculation of the following pharmacokinetic parameters:
Dose normalized parameters Cmax/Dose and AUC/Dose were also calculated.
Series [7] can be described thus: Relative bioavailability of intranasal vs oral betahistine in humans (Example 3 vs Barak et al.). It is filed as in vivo. As to conditions: human. The protocol: For the calculation of the relative bioavailability of intranasal betahistine compared to peroral betahistine, the area under the concentration-time curve (AUC) determined in Example 3 was compared to the AUC determined in a study with oral betahistine in healthy volunteers described in Barak et al. (Journal of Psychopharmacology, 2016, Vol. 30(3) 237-241). In brief, in this study, forty-eight healthy women were recruited and randomized to receive per os (i.e. orally) either betahistine 144 mg/day (48 mg t.i.d.) or matching placebo for 4 weeks. Their mean weight was 60.2 kg in the active-treated group (n=24) and 59.8 kg in the placebo group (n=24). Study medication (betahistine or matching placebo) was administered at least 30 minutes prior to eating. On Day 8, blood samples of 6 mL each were collected at 8 am, and 30, 60, 150 and 300 minutes thereafter. Plasma concentrations of betahistine and its metabolite 2-PAA were determined by high-performance liquid chromatography.

The source of these data is patent US20190365728A1, “PHARMACEUTICAL COMPOSITION COMPRISING BETAHISTINE” (Otolanum AG, priority 2017, published 2019).

Marks after values point to notes of the source that are not given here.

As to `NCCc1ccccn1` [AEP, aminoethylpyridine], the plasma concentration entry in series [1] (AEP, human, intranasal betahistine 60 mg) was “barely detectable”.

With `OCCc1ccccn1` [HEP, hydroxyethylpyridine], the median tmax in series [1] (in vivo) worked out at 15 min.

`O=C(O)Cc1ccccn1` [Variant 2-PAA, 2-pyridylacetic acid]: the “Tmax, median (min-max)” value in series [2] (male, beagle, dog, in vivo) is given as 0.13 (0.08-0.33) hr. For the same molecule, the last measurable values in series [3] (both, beagle, dog, in vivo) came out at 24 hours post-dose. Besides, in series [4], the pharmacological activity result is “no pharmacological activity”.

Take `CNCCc1ccccn1` [betahistine]: in series [2] (both, beagle, dog, in vivo), the salivation result is “noted in most animals” and the “sneezing, animals affected” value was 2/8. Also, the tolerability result in series [2] (dogs, single intranasal 40-120 mg) is “well tolerated”. In addition, the peak level in series [2] (female, beagle, dog, in vivo, iv, 0.44 mg/kg) (Cmax) was 4.37 ± 8.84 ng/mL. The tolerability entry in series [3] (beagle dogs, intranasal, single dose 4-80 mg and 14-day repeat dose 12-240 mg/day) is “well tolerated”. Also, in series [3] (both, beagle, dog, in vivo), the “body weights, clinical pathology and gross necropsy findings” value is “unremarkable”; the microscopic findings result is given as “No adverse treatment-related microscopic findings”. The “decline of plasma concentration” value in series [3] (both, beagle, dog, in vivo, 1 h) is “more than 90%”. Besides, in series [5] (both, in vivo), the apparent half-life entry is reported as “less than 1 h”; the “exposure AUC0-6 unadjusted for dose, intranasal vs oral 48 mg” value is recorded as 5-29 fold; the “nasal pain, share of administrations” value worked out at 4%; the “post-nasal drip, share of administrations” value was determined as 5%. In series [5] (both, in vivo), the “runny nose, share of administrations” value came to 6% and the “time of maximum concentrations” value fell in the range of 5 to 20 min. Also, in series [5] (both, in vivo, 3 days), the accumulation over time result is reported as “No accumulation”. Also, the “time of maximum concentrations” value in series [5] (both, in vivo, po) lay within 15 to 30 min. The same molecule returned a tmax in series [5] (both, in vivo, tmax, Median (range)) of 15 min. In addition, in series [5] (intranasal multiple dosing three times daily over three days), the “dose up to which safety and tolerability could be shown” value is listed as “up to 40 mg”. The “dose up to which safety and tolerability could be shown” value in series [5] (intranasal single doses) is “up to 60 mg”. For the same molecule, in series [6] (betahistine, single intranasal 20 mg), the “peak concentration in plasma” value stood at 4.1 ng/mL. Moreover, the tmax in series [6] (single intranasal 5 mg) is on record as 0.208 (0.08-0.33) hr. Further, the t1/2 in series [6] (single intranasal 10 mg, mean, n=3) is 0.883 ^a hr. The tmax in series [6] (single intranasal 10 mg) was 0.167 (0.08-0.17) hr. In addition, the tmax in series [6] (single intranasal 40 mg) is reported as 0.125 (0.08-0.27) hr. The “relative bioavailability of oral vs. intranasal administration” value in series [7] (Barak et al. oral vs Example 3 intranasal) is given as “approximately 2.4%”. Moreover, the “bioavailability intranasal relative to oral” value in series [7] (Example 3 single intranasal 5-40 mg vs Barak et al. oral 48 mg) is reported as 20-40 times. The “Rel. Bioavail. intranasal relative to oral” value in series [7] (intranasal 40 mg vs oral 48 mg (Barak et al.)) is on record as 41.1.
